The source of these data is paper PMC5487340, “Peptides derived from MARCKS block coagulation complex assembly on phosphatidylserine” (Scientific Reports, 2017).

Assay [1] has as its system prothrombinase (bovine FXa and FVa) on washed human platelets activated by convulxin and thrombin. The assay can be described thus: Platelet-dependent prothrombinase assay. The class given is biochemical. Conditions: 1 μM, washed human platelets with convulxin and thrombin, thrombin Vmax with S-2238, n = 8. How it is done:
Human whole blood was collected from healthy volunteers by venipuncture into 3.2% sodium citrate. Washed platelets were prepared from whole blood collected by venipuncture into 3.8% sodium citrate and acid-citrate-dextrose (ACD). Platelet-rich plasma (PRP) was prepared by centrifugation of whole blood at 200 g for 20 min. Platelets were isolated from the PRP by centrifugation at 1000 g for 10 min with 0.1 μg ml^−1 prostacyclin (PGI2) (Sigma-Aldrich). The resulting pellet was resuspended with modified Tyrode’s buffer (129 mM NaCl, 20 mM HEPES, 12 mM NaHCO3, 2.9 mM KCl, 1.0 mM MgCl2, 0.34 mM Na2HPO4, 5 mM glucose, pH 7.3), ACD, and 0.1 μg ml^−1 PGI2. Platelets were then washed by re-pelleting at 1000 g for 10 min and re-suspending with modified Tyrode’s buffer.
Effects on coagulation factor enzymatic activity were determined using a modification of a previously described prothrombinase assay, [55]. Washed human platelets (8 × 10^5 reaction^−1) were incubated at 37 °C with either a buffer blank or 375 ng ml^−1 convulxin (Centerchem, Norwalk, CT) and 5.0 nM thrombin (Haematologic Technologies) in modified Tyrode’s buffer containing 2.9 mM CaCl2 and 0.05% wt vol^−1 fatty acid-free bovine serum albumin (BSA). After 7 min, 1 μM investigational peptide or protein, or a buffer blank, was added, followed 3 min later by bovine FXa (3 nM) and FVa (6 nM) (Haematologic Technologies). […]

Assay [2] has as its system fibrin formation in whole human blood. Kind of assay: Whole blood microfluidic flow assay. The class given is cell-based. The settings on record: whole human blood over collagen, 10 min, wall shear rate 100 s^-1, 1 μM peptide or annexin V, heparin 15 USP ml^-1, n = 6. The text has this: Effects on whole blood platelet activation and accumulation, as well as fibrin formation, were examined using a modification of a previously described microfluidic flow assay. A custom polydimethylsiloxane microfluidic flow device containing four channels, each with a height of 100 μm and width of 500 μm, was vacuum mounted to a glass slide patterned with a type I fibrillar collagen strip (Chrono-log). The microfluidic flow device channels were oriented perpendicular to the patterned collagen strip, resulting in a 50 μm patch of collagen across the width of each channel. Whole blood was labeled with a Pacific Blue anti-human CD41 antibody (BioLegend) for 10 min, followed by the addition of 30 μg ml^−1 Alexa Fluor 647 human plasma fibrinogen conjugate (Life Technologies) and either 1 μM NBD labeled investigational peptide, 1 μM annexin V (BioVision), or 15 USP ml^−1 heparin. Immediately before the assay, the whole blood mixture was recalcified to 7.5 mM CaCl2. The whole blood was then pulled through the device channels for 10 min at wall shear rate 100 s^−1 using a PhD Ultra syringe pump (Harvard Apparatus, Holliston, MA). […] Fluorescence intensities and platelet surface area coverages were measured using ImageJ (NIH, Bethesda, MD). […]

Assay [3] deals with P-selectin positive platelets. The assay can be described thus: Flow cytometry of binding to platelets. The settings on record: washed human platelets, 1 μM NBD labeled peptide, 30 min, n = 6. In kind it is cell-based. As to the method: Human whole blood was collected from healthy volunteers by venipuncture into 3.2% sodium citrate. Washed platelets were prepared from whole blood collected by venipuncture into 3.8% sodium citrate and acid-citrate-dextrose (ACD). Platelet-rich plasma (PRP) was prepared by centrifugation of whole blood at 200 g for 20 min. Platelets were isolated from the PRP by centrifugation at 1000 g for 10 min with 0.1 μg ml^−1 prostacyclin (PGI2) (Sigma-Aldrich). The resulting pellet was resuspended with modified Tyrode’s buffer (129 mM NaCl, 20 mM HEPES, 12 mM NaHCO3, 2.9 mM KCl, 1.0 mM MgCl2, 0.34 mM Na2HPO4, 5 mM glucose, pH 7.3), ACD, and 0.1 μg ml^−1 PGI2. Platelets were then washed by re-pelleting at 1000 g for 10 min and re-suspending with modified Tyrode’s buffer. Washed platelets were obtained from the whole blood as described above. The platelets were resuspended in modified Tyrode’s buffer containing 2 mM CaCl2, counted, and diluted to 2 × 10^4 platelets μL^−1. Platelets were stimulated with either 1 IU ml^−1 thrombin (Chrono-log, Havertown, PA), 250 ng ml^−1 convulxin (Centerchem), 1 IU ml^−1 thrombin and 250 ng ml^−1 convulxin, or left unstimulated for 10 min at room temperature. […] The samples were then immediately fixed in 1% paraformaldehyde, diluted, and analyzed on a MoFlo Astrios EQ flow cytometer (Beckman Coulter, Brea, CA) with appropriate color compensation.

For “H-GGDYDKIGKNDA-NH2 [C2BL3-L, NH2-GGDYDKIGKNDA-CONH2]”, in assay [1], the “reduction in prothrombinase activity” value stood at 17%. For heparin, the “fibrin formation on adherent platelets (in words)” value in assay [2] is “equivalent fibrin formation inhibition to that of the MARCKS ED peptides”.

B1: annexin V: PS binding protein, positive control (protein)
chain: MAQVLRGTVTDFPGFDERADAETLRKAMKGLGTDEESILTLLTSRSNAQRQEISAAFKTLFGRDLLDDLKSELTGKFEKLIVALMKPSRLYDAYELKHALKGAGTNEKVLTEIIASRTPEELRAIKQVYEEEYGSSLEDDVVGDTSGYYQRMLVVLLQANRDPDAGIDEAQVEQDAQALFQAGELKWGTDEEKFITIFGTRSVSHLRKVFDKYMTISGFQIEETIDRETSGNLEQLLLAVVKSIRSIPAYLAETLYYAMKGAGTDDHTLIRVMVSRSEIDLFNIRKEFRKNFATSLYSMIKGDTSGDYKKALLLLCGEDD
Turning to B1, the “fibrin formation on adherent platelets (in words)” value in assay [2] is recorded as “equivalent fibrin formation inhibition to that of the MARCKS ED peptides”. For the same molecule, the “labeling of unstimulated platelets” value in assay [3] is recorded as “Neither D-MARCKS ED nor annexin V labeled the unstimulated platelets”.
